Structures are written as SMILES. Calls of active or inactive are those of the source. The calls are words filed in the database; no cut-off is given here.

The source of these data is ChEMBL document CHEMBL6109077, “Design, synthesis and in vitro validation of bivalent binders of SARS-CoV-2 spike protein: Obeticholic, betulinic and glycyrrhetinic acids as building blocks” (Bioorg Med Chem, 2025).

The experiment has as its target Glycoprotein (Vesicular stomatitis Indiana virus (strain San Juan) (VSIV)) (UniProt P03522). Kind of experiment: Inhibition of glycoprotein in pseudotyped Vesicular stomatitis virus infected in 293T/ACE2 cells assessed as reduction in viral entry at 10 uM preincubated with virus for 1 hr followed by cell infection and measured after 48 hrs by bright-glo luciferase reporter gene assay. To be noted: time 49.0 hrs. The format is cell-based. For orientation: A reporter such as luciferase makes a cellular process visible.

Sequence of Glycoprotein (Vesicular stomatitis Indiana virus (strain San Juan) (VSIV)) (P03522 whole entry): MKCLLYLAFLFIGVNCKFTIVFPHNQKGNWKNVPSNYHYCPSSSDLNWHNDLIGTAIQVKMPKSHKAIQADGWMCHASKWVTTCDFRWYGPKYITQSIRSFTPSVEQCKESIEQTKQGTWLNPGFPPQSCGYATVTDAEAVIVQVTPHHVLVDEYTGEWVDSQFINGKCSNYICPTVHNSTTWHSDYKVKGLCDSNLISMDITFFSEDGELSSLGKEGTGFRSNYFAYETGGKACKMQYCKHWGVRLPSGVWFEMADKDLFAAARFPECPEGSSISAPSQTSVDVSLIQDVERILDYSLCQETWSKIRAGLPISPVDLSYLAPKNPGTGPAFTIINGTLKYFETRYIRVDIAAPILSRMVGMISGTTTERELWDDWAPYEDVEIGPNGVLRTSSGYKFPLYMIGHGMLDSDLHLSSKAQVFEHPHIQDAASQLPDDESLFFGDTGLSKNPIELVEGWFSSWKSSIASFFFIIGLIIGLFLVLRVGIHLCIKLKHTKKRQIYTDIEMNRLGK

Regarding `CC[C@H]1[C@@H](O)[C@@H]2[C@H](CC[C@]3(C)[C@@H]([C@H](C)CCC(=O)NCCCCCCn4cc(CCCCC(=O)O[C@H]5CC[C@H]6[C@@H](CC[C@]7(C)[C@@H]6C(=O)C=C6[C@@H]8C[C@@](C)(C(=O)OC)CC[C@]8(C)CC[C@]67C)C5(C)C)nn4)CC[C@@H]23)[C@@]2(C)CC[C@@H](O)C[C@@H]12`, the inhibition entry was “inactive”.
With `C=C(C)[C@@H]1CC[C@]2(C(=O)OC)CC[C@]3(C)[C@H](CC[C@@H]4[C@@]5(C)CC[C@H](OC(=O)CCCCCCCCNC(=O)CC[C@@H](C)[C@H]6CC[C@H]7[C@@H]8[C@H](O)[C@H](CC)[C@@H]9C[C@H](O)CC[C@]9(C)[C@H]8CC[C@]67C)C(C)(C)[C@@H]5CC[C@]43C)[C@@H]12`, the inhibition entry is “inactive”.
`C=C(C)[C@@H]1CC[C@]2(C(=O)OC)CC[C@@]3(C)[C@@H]4CC[C@@H]5[C@H](CC[C@H](OC(=O)CCCCc6cn(CCCCCCNC(=O)CC[C@@H](C)[C@H]7CC[C@H]8[C@@H]9[C@H](O)[C@H](CC)[C@@H]%10C[C@H](O)CC[C@]%10(C)[C@H]9CC[C@]78C)nn6)C5(C)C)[C@H]4CC[C@@H]3[C@@H]12`: the inhibition result was “inactive”.
The same measure for `C=C(C)[C@@H]1CC[C@]2(C(=O)OC)CC[C@]3(C)[C@H](CC[C@@H]4[C@@]5(C)CC[C@H](OC(=O)CCCNC(=O)CC[C@@H](C)[C@H]6CC[C@H]7[C@@H]8[C@H](O)[C@H](CC)[C@@H]9C[C@H](O)CC[C@]9(C)[C@H]8CC[C@]67C)C(C)(C)[C@@H]5CC[C@]43C)[C@@H]12`: “inactive”.
